Assay results taken from ChEMBL document CHEMBL1201862, “PubChem BioAssay data set” (2004).
Calls of active or inactive are those of the source.

Legend:
[1] = target: T1, Endoribonuclease toxin MazF (Escherichia coli K-12, UniProt P0AE70); experiment: activation of MazEF endoribonuclease cleavage – biochemical, fluorescence, single-stranded RNA substrate, uHTS hits, dose response (AID 588481); type: functional
[2] = target: T1, Endoribonuclease toxin MazF; experiment: substrate-only fluorescence increase artefacts – biochemical, single-stranded RNase substrate, counter-screen for MazEF activator project, dose response (AID 588502); type: functional
Phospholipase D1 = Phospholipase D1 (Homo sapiens, UniProt Q13393); experiment: cellular phospholipase D1 inhibition IC50 – cell-based, dose response (AID 602151); type: functional;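 also: cellular PLD1 assay in Calu-1 cells stimulated with PMA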
Phospholipase D2 = Phospholipase D2 (Homo sapiens, UniProt O14939); experiment: cellular phospholipase D2 inhibition IC50 – cell-based, dose response (AID 602147); type: functional;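 also: cellular assay in HEK293 cells overexpressing GFP-tagged PLD2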
NIH3T3 = experiment: mammalian cell viability counter-check – Alamar Blue, fluconazole, dry powder, cytotoxicity control for antifungal drug resistance project, dose response (AID 488809); type: functional, cell-based; conditions: Mus musculus
INS1 [3] = experiment: beta-cell survival under cytokine stress – INS-1E, ATP luminescence, dry powder, dose response (AID 488844); type: functional, cell-based; conditions: Rattus norvegicus
[4] = suppression of NO production in INS-1E cells – cell-based, Griess absorbance, dry powder, set 3, dose response (AID 488870); type: functional; conditions: Rattus norvegicus
INS1 [5] = experiment: suppression of NO production in INS-1E cells – cell-based, Griess absorbance, dry powder, set 2, dose response (AID 488868); type: functional; conditions: Rattus norvegicus
INS1 [6] = experiment: INS-1E mitochondrial potential rescue under cytokines – cell-based, JC-1 fluorescence ratio, dry powder, dose response (AID 488931); type: functional; conditions: Rattus norvegicus
BJ [7] = experiment: BJ-TERT fibroblast viability loss – cell-based, RAS-independent, luminescence, dose response (AID 1933); type: functional; conditions: Homo sapiens
Vero = experiment: mammalian cell viability reduction – secondary assay, cytotoxicity control for West Nile virus antiviral project, dose response (AID 1650); type: functional; conditions: Chlorocebus sabaeus
BJ [8] = experiment: cells; type: functional, cell-based; conditions: Homo sapiens
BJ [9] = experiment: BJ-TERT-LT-ST fibroblast viability loss – cell-based, RAS-independent, luminescence, dose response (AID 1935); type: functional; conditions: Homo sapiens;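 also: BJ fibroblasts immortalized with TERT plus LT and ST oncogenes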
[10] = DRD fibroblast viability loss – cell-based, non-viral oncogenic, luminescence, dose response (AID 1934); type: functional; conditions: Homo sapiens
BJ [11] = experiment: growth inhibition of engineered Ras-driven BJ cells – cell-based, alamar blue fluorescence, cherrypicked samples, dose response (AID 2631); type: functional; conditions: Homo sapiens;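 also: confirmatory dose-response assay in RAS-dependent BJ fibroblasts engineered with TERT, LT and ST, with cytotoxicity read by fluorescence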
[12] = target: Dual specificity tyrosine-phosphorylation-regulated kinase 1A (Rattus norvegicus, UniProt Q63470); type: biochemical, Homo sapiens
[13] = cytotoxicity toward MDA-MB-231 breast cancer cells – cell-based, CellTiter-Glo luminescence, cherry-pick, cytotoxicity control for RAD54 inhibitor project, dose response (AID 651692); type: functional
[14] = target: DNA repair and recombination protein RAD54-like (Homo sapiens, UniProt Q92698); experiment: RAD54 Holliday junction migration blockers – biochemical, fluorescence, cherry-picked samples, dose series, confirmation (AID 651657); type: functional
[15] = target: DNA repair protein RAD52 homolog (Homo sapiens, UniProt P43351); type: functional, biochemical
Chain of DNA repair protein RAD52 homolog (P43351 whole entry): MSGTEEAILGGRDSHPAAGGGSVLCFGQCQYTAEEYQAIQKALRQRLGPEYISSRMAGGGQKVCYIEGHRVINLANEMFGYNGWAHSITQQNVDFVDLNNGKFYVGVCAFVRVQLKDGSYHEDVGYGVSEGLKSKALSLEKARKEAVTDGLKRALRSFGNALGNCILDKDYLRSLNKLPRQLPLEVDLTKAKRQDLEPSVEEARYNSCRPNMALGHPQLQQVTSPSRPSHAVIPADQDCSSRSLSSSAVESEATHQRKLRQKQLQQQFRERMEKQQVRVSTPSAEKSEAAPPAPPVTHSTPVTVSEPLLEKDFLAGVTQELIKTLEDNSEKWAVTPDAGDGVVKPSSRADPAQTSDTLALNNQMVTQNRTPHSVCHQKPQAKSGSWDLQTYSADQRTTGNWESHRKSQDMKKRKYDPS

T1 sequence (P0AE70 whole entry): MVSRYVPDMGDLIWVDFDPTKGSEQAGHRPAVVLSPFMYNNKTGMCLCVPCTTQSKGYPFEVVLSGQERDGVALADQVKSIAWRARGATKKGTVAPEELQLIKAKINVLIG
Chain of Phospholipase D2 (O14939 whole entry): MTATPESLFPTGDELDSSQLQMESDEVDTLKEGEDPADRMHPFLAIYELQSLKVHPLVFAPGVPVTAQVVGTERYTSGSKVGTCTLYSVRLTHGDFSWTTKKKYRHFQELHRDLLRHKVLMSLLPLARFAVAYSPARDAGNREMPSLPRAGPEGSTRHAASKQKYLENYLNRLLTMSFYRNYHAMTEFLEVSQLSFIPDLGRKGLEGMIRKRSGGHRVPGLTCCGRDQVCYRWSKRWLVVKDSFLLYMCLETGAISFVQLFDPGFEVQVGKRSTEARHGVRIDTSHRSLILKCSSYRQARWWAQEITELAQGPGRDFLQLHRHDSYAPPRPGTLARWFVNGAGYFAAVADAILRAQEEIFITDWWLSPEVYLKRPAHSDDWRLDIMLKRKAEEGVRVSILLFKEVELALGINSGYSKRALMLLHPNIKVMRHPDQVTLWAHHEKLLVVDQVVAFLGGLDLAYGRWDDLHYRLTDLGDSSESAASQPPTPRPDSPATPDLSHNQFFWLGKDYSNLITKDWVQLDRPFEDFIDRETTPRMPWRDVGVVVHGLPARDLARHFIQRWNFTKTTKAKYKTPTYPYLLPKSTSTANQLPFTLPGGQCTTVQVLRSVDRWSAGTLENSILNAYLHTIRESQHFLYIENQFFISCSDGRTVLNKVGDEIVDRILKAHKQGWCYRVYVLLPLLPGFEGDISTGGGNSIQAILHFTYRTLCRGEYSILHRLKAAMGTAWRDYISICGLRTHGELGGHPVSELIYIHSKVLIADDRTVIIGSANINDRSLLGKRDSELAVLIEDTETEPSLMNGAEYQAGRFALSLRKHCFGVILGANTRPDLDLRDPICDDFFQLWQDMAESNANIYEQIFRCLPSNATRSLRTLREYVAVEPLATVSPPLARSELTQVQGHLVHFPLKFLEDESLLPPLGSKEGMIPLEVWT
Chain of DNA repair and recombination protein RAD54-like (Q92698 whole entry): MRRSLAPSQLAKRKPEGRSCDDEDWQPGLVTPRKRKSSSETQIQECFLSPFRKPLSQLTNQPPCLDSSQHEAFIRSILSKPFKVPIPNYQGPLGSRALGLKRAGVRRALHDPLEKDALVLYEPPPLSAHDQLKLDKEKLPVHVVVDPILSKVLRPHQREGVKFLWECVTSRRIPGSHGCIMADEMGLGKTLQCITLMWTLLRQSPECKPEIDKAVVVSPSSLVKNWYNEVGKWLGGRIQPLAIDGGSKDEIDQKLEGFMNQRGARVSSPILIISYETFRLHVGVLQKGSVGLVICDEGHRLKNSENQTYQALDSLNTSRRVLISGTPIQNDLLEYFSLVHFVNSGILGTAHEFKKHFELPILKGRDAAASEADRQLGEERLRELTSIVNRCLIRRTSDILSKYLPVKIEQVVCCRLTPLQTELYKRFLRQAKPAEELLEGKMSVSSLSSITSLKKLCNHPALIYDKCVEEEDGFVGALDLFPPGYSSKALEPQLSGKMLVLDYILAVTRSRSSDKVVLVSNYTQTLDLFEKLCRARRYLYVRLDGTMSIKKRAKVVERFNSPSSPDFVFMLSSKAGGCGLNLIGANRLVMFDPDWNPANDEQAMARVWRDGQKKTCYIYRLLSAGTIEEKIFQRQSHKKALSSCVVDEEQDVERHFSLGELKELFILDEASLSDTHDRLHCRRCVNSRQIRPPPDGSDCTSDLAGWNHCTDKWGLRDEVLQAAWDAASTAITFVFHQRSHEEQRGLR
Chain of Phospholipase D1 (Q13393 whole entry): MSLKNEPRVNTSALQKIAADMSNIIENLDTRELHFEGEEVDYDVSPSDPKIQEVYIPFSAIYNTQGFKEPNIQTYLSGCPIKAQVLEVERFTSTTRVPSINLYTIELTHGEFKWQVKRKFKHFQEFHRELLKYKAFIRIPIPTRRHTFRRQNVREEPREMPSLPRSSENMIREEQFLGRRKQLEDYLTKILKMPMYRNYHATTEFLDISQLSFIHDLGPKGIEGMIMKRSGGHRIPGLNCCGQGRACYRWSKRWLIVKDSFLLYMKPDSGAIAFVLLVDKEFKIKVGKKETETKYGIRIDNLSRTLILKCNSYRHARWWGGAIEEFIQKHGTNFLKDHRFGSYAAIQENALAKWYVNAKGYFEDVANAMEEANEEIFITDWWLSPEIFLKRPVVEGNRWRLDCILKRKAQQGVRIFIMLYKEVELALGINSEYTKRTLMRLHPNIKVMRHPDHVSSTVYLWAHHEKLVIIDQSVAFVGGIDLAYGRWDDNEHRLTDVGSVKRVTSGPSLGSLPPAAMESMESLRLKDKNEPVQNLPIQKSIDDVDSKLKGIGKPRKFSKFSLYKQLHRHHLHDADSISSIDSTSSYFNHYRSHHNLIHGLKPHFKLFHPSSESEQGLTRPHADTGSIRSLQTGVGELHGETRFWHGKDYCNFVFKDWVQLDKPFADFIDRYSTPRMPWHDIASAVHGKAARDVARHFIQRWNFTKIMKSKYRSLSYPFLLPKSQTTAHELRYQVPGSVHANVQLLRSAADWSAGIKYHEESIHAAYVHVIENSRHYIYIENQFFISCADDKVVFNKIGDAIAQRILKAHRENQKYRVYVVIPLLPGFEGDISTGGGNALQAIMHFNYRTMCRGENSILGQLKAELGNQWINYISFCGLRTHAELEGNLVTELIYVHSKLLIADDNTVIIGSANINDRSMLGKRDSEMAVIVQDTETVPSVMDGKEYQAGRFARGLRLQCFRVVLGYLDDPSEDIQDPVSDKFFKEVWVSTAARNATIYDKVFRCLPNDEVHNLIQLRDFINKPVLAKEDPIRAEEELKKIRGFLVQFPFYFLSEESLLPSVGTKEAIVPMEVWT

In the case of Cc1sc(NC(=O)CSc2nnc(N)[nH]2)c(C#N)c1C, the EC50 [1] is reported as > 99 µM (inactive) and the EC50 [2] is reported as > 99 µM (inactive).

For O=C(NCCN1CCC(n2c(=O)[nH]c3cc(I)ccc32)CC1)c1ccc(Cl)cc1, the IC50 (Phospholipase D1) was 0.005 µM (active) and the IC50 (Phospholipase D2) was 0.345 µM (active).

In the case of COc1ccc2c(c1)c1nc3n(c(=O)c1n2CC(=O)N1CCC(Cc2ccccc2)CC1)CCS3, the AC50 (NIH3T3) is reported as 207 µM (active).

In the case of COc1cccc(S(=O)(=O)N(C)C[C@@H]2Oc3c(NC(=O)Nc4cccc5ccccc45)cccc3C(=O)N([C@@H](C)CO)C[C@H]2C)c1, the AC50 (INS1 [3]) is reported as 77 µM (active), the AC50 [4] is reported as 29 µM (active) and the AC50 (INS1 [5]) is reported as 28.7 µM (active). For the same molecule, the AC50 (INS1 [6]) was 98.9 µM (active).

With Nc1nc(N)c2c(ccc3[nH]ccc32)n1 the EC50 (BJ [7]) was 112 µM (active), the CC50 (Vero) was 5.14 µM (active) and the EC50 (BJ [8]) was 4.8 µM (inconclusive). For the same molecule, the EC50 (BJ [9]) was > 38 µM (not active), the EC50 [10] was 14.4 µM (inconclusive) and the EC50 (BJ [11]) was > 133 µM (inactive). The AC50 [12] was 5.51 µM (active), the AC50 [13] was 4.07 µM (active) and the AC50 [14] was 38.6 µM (active). For the same molecule, the AC50 [15] was 12 µM (active).
